What was measured:
[1] = test system: B 697 promyelocytic cell line; assay: Cytotoxicity on 697 cell line (CellTiter 96); assay type: cell-based; settings: 72 hours incubation, read-out: 697 TOXICITY
How it was run: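 Mitochondrial-function readout (CellTiter 96 Aqueous One) after 72 h compound exposure, begun 24 h post-seeding. Dose ranges: 697 cells, 1 to 10000 nM at 2×10^4 cells/well; PBMCs, 1.5 to 10000 nM at 5×10^5 cells/well.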

[2] = Stability to Phase I metabolism in human S9 liver fraction; assay type: in vitro ADME
How it was run: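 Phase I stability in human and rat hepatic S9 at 37 °C, sampled up to 90 min. Samples were stopped with acidified acetonitrile on ice, then quantified by HPLC-UV or LC-MS/MS.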

[3] = Stability in human plasma; assay type: in vitro ADME; settings: after 4 hours, 37° C.
How it was run: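 Compounds incubated at 37° C in rat or human plasma at 50 μM (UV/HPLC) or 1 or 2 μM (LC-MS/MS) for 0–4 h. Reaction stopped with acidified acetonitrile on ice; percent remaining versus initial amount and plasma half-life calculated.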

[4] = test system: α-tubulin acetylation in 697 cell line; assay: In vitro α-tubulin acetylation in 697 cell line; assay type: cell-based; settings: 16 hours, read-out: Tubulin acetylation (ratio of acetylated tubulin and total tubulin towards control); for fold induction at 0.037 µM: Conc 37 nM; for fold induction at 0.111 µM: Conc 111 nM; for fold induction at 0.333 µM: Conc 333 nM; for fold induction at 1 µM: Conc 1000 nM
Protocol: The in vitro α-tubulin and H3 histone acetylation determination was evaluated on B 697 […] cell line.
The test molecules were diluted from 20 mM stock solution in DMSO with RPMI 10% FCS+0.01% DMSO medium at 20× concentration compared to the final concentration, added to the cells (15×10^6 cells in a total volume of 30 ml in RPMI medium 10% FCS+0.01% DMSO) to obtain the final concentrations of 1000, 333, 111 and 37 nM and incubated at 37° C., 5% CO2 for 16 hours.
At the end of the incubation period, 5×10^6 cells were taken from each sample, centrifuged for 5 minutes at 1100 rpm and washed in 0.9% NaCl at 4° C. The resulting pellet was lysed by treating at 4° C. for 30 minutes with 150 μl of Complete Lysis-M (Roche, cat-04719956051) containing protease inhibitors and phosphatase (Complete Easy Pack proteinase inhibitor cocktail tablets cat: 04693116001, Phostop easypack phosphatase inhibitor cocktails, cat: 01906837001—Roche), then centrifuged 10 minutes at 14,000 rpm (20817×g). 0.150 μg of supernatant (total protein extract) were diluted in 100 μl of 1×PBS and immobilized in Maxisorp F96 NUN-IMMUNO Plate (Nunc cat #5442404) at room temperature overnight. Plates were washed twice with Wash Buffer (PBS1X+0.005% tween 20) and saturated for 1 hour at room temperature with 300 μL of 1×PBS containing 10 FCS. After washing with buffer (1×PBS containing 0.005% tween), the plates were incubated for two hours at room temperature in the presence of anti-acetylated-α-tubulin antibody (Monoclonal Anti-acetylated-tubulin clone 6-11B-1, mouse ascites fluid, cat #T6793 Sigma, 100 μl diluted 1:1000 in 1×PBS containing 10% FCS) or with total anti-α-tubulin antibody (Monoclonal Anti alpha-tubulin produced in mouse, cat #T6074 Sigma). After washing, 100 μl per well of TMB substrate kit was added for 10 minutes at room temperature in the dark. The reaction was stopped by adding 50 μl of 2N H2SO4. The plates were read at Multiskan Spectrum spectrophotometer at a wavelength of 450 nm.
The degree of acetylation was calculated by dividing the absorbance obtained for acetylated α-tubulin by the absorbance of total α-tubulin.
Test results of tubulin and H3 histone acetylation, expressed as fold increase of ratio of acetylated α-tubulin/total α-tubulin and H3Ac/H3Tot, respectively, of each sample relative to the control sample (untreated) are summarized in Tables 6 and 6′.

[5] = human liver S9 fraction, after 90 min, 37° C.

Row | SMILES | IC50 [1] | residual percentage in human S9 fraction ([2]; human, 90 min, pH 7.4) | residual percentage in human plasma [3] | residual percentage in human S9 fraction [2, 5] | fold induction at 0.037 µM [4] | fold induction at 0.111 µM [4] | fold induction at 0.333 µM [4] | fold induction at 1 µM [4]
1 | COc1ccc(C(=O)N[C@@H](Cc2cscn2)c2nc(Cc3ccc(C(=O)NO)cc3)no2)cc1OC [comp. 1, (S)—N-(1-(3-(4-(hydroxycarbamoyl)benzyl)-1,2,4-oxadiazol-5-yl)-2-(thiazol-4-yl)ethyl)-3,4-dimethoxybenzamide] | 10.4 µM | 81% | 102% | – | – | – | – | –
2 | Cn1c(Sc2c(F)cc(C(=O)NO)cc2F)nnc1-c1cccc2ccccc12 [comp. 2, 3,5-difluoro-N-hydroxy-4-((4-methyl-5-(naphthalen-1-yl)-4H-1,2,4-triazol-3-yl)thio)benzamide] | 6.08 µM | 78% | 71% | – | – | – | – | –
3 | O=C(NO)c1cc(F)c(Cn2nnc(-c3ccccn3)n2)c(F)c1 [comp. 6, 3,5-difluoro-N-hydroxy-4-((5-(pyridin-2-yl)-2H-tetrazol-2-yl)methyl)benzamide] | > 10 µM | – | 96% | 85.6% | – | – | – | –
4 | O=C(NO)c1ccc(Cn2nnnc2-c2cccs2)cc1 [comp. 8, N-hydroxy-4-((5-(thiophen-2-yl)-1H-tetrazol-1-yl)methyl)benzamide] | 8.88 µM | – | 91% | 100% | – | – | – | –
5 | Cn1c(Sc2ccc(C(=O)NO)cc2)nnc1-c1cccs1 [comp. 10, N-hydroxy-4-((4-methyl-5-(thiophen-2-yl)-4H-1,2,4-triazol-3-yl)thio)benzamide] | 4.33 µM | – | 99% | 95% | – | – | – | –
6 | O=C(NO)c1cc(F)c(Cn2nnnc2-c2ccccn2)c(F)c1 [comp. 13, 3,5-difluoro-N-hydroxy-4-((5-(pyridin-2-yl)-1H-tetrazol-1-yl)methyl)benzamide] | – | 98% | 94% | – | – | – | – | –
7 | O=C(NO)c1cc(F)c(Cn2nnnc2-c2cccs2)c(F)c1 [comp. 15, 3,5-difluoro-N-hydroxy-4-((5-(thiophen-2-yl)-1H-tetrazol-1-yl)methyl)benzamide] | 8.72 µM | 83% | 91% | – | 1 | 3 | 5 | 12
8 | Cn1c(Sc2c(F)cc(C(=O)NO)cc2F)nnc1-c1cccs1 [comp. 17, 3,5-difluoro-N-hydroxy-4-((4-methyl-5-(thiophen-2-yl)-4H-1,2,4-triazol-3-yl)thio)benzamide] | 5.2 µM | – | 98% | 83% | – | – | – | –
9 | O=C(NO)c1cc(F)c(Cn2nnc(-c3ccco3)n2)c(F)c1 [comp. 19, 3,5-difluoro-4-((5-(furan-2-yl)-2H-tetrazol-2-yl)methyl)-N-hydroxybenzamide] | 1.16 µM | – | 100% | 94% | 7 | 15 | 21 | 17
10 | CN(C)c1cccc(-c2nnc(Sc3ccc(C(=O)NO)cc3)n2C)c1 [comp. 77, 4-[[5-[3-(dimethylamino)phenyl]-4-methyl-1,2,4-triazol-3-yl]sulfanyl]benzenecarbohydroxamic acid] | 11.1 µM | – | – | – | – | – | – | –
11 | O=C(NO)c1cc(F)c(Cn2nnc(-c3scc4c3OCCO4)n2)c(F)c1 [comp. 79, 4-[[5-(2,3-dihydrothieno[3,4-b][1,4]dioxin-5-yl)tetrazol-2-yl]methyl]-3,5-difluoro-benzenecarbohydroxamic acid] | 22.2 µM | – | – | – | – | – | – | –
12 | Cc1cc(-c2nnc(Sc3ccc(C(=O)NO)cc3)n2C)nn1C [comp. 85, 4-[[5-(1,5-dimethylpyrazol-3-yl)-4-methyl-1,2,4-triazol-3-yl]sulfanyl]benzenecarbohydroxamic acid] | 1.16 µM | – | – | – | – | – | – | –
13 | O=C(NO)c1cc(F)c(Cn2nnnc2-c2ncccn2)c(F)c1 [comp. 125, 3,5-difluoro-4-[(5-pyrimidin-2-yltetrazol-1-yl)methyl]benzenecarbohydroxamic acid] | > 10 µM | 83% | 77% | – | 1 | 3 | 6 | 14
14 | Cn1c(Sc2c(F)cc(C(=O)NO)cc2F)nnc1-c1cccc(CN2CCCCCC2)c1 [comp. 167, 4-[[5-[3-(azepan-1-ylmethyl)phenyl]-4-methyl-1,2,4-triazol-3-yl]sulfanyl]-3,5-difluoro-benzenecarbohydroxamic acid] | 43 µM | – | 91% | 78% | 2 | 3 | 9 | 13
15 | Cn1c(Sc2c(F)cc(C(=O)NO)cc2F)nnc1-c1ccc(CN2CCCCCC2)cc1 [comp. 168, 4-[[5-[4-(azepan-1-ylmethyl)phenyl]-4-methyl-1,2,4-triazol-3-yl]sulfanyl]-3,5-difluoro-benzenecarbohydroxamic acid] | 36.9 µM | – | – | – | 3 | 11 | 19 | 16
16 | Nc1ccc(-c2nnn(Cc3c(F)cc(C(=O)NO)cc3F)n2)cc1 [comp. 171, 4-[[5-(4-aminophenyl)tetrazol-2-yl]methyl]-3,5-difluoro-benzenecarbohydroxamic acid] | 6.14 µM | – | 88% | 74% | 10 | 19 | 20 | 22
17 | Cn1c(Sc2c(F)cc(C(=O)NO)cc2F)nnc1-c1cccnn1 [comp. 179, 3,5-difluoro-4-[(4-methyl-5-pyridazin-3-yl-1,2,4-triazol-3-yl)sulfanyl]benzenecarbohydroxamic acid] | 50.3 µM | – | 100% | 79% | 2 | 7 | 6 | 14
18 | Cn1c(Sc2c(F)cc(C(=O)NO)cc2F)nnc1-c1ncccc1F [comp. 180, 3,5-difluoro-4-[[5-(3-fluoro-2-pyridyl)-4-methyl-1,2,4-triazol-3-yl]sulfanyl]benzenecarbohydroxamic acid] | 40.2 µM | – | 97% | 80% | 2 | 7 | 15 | 19
19 | O=C(NO)c1cc(F)c(Cc2nnc(-c3ccncc3)s2)c(F)c1 [compound 195, 3,5-difluoro-4-[[5-(4-pyridyl)-1,3,4-thiadiazol-2-yl]methyl]benzenecarbohydroxamic acid] | 3.12 µM | – | 93% | 68% | 6 | 11 | 10 | 14

Source: US11351178B2, “Selective HDAC6 inhibitors” (ITALFARMACO S.P.A., priority 2017, dated 2022)
